Series [1] is described as follows: Pulmonary Toxicity Assay (bronchoalveolar lavage protein). It is filed as in vivo, rats. Conditions: 24 hr post-dose. Here is the method: The analysis of protein levels in bronchoalveolar lavage (BAL) fluid obtained from an animal were used to gauge pulmonary side effects. Increased levels of protein in BAL fluid were indicative of undesired edematous pulmonary effects, such as pulmonary edema.
Example 3 was administered orally to rats at doses of 0.3, 1.0, 10, 30 mg/kg and 2-amino-2-[2-(4-octylphenyl)ethyl]-1,3-propanediol, hydrochloride (CAS: 162359-56-0) was administered at 3.0 mg/kg as a solution in the vehicle. At 24 hours post dose, the rats were then euthanized by barbiturate overdose. The trachea was exposed by incision of the overlying skin and then cannulated. The lungs were lavaged with 4 mL of saline. The recovered lavage fluid was assayed for total protein content. The concentration of the BAL protein in the recovered BAL fluid was determined on an Advia 1800 Chemistry Analyzer (Siemens Healthcare Diagnostics). The results represent the average results of all animals within each treatment group (n=2-4).

For another series, the system named is blood lymphocytes. Nature of the series: Blood Lymphocyte Reduction (BLR) assay in rodent. Conditions: 24 hr post-dose; for Percent reduction vs. vehicle control: Table C study. It is filed as in vivo, Lewis rats.
The target of series [2] is T1, S1P1 (Homo sapiens (Human), UniProt P21453). Nature of the series: Receptor [35S] GTPγS Binding Assay, S1P1. Conditions: membranes from S1P1/CHO cells. The class given is biochemical. As to the method: (§1) Receptor [^35S] GTPγS Binding Assays:
(§2) Compounds were loaded in a 384 Falcon v-bottom plate (0.5 μl/well in an 11 point, 3-fold dilution). Membranes prepared from S1P1/CHO cells or EDG3-Gal5-bla HEK293T cells (EDG3 equivalent S1P3) were added to the compound plate ([…], final protein 3 μg/well) with MULTIDROP®. [^35S]GTP (1250 Ci/mmol, Perkin Elmer) was diluted in assay buffer: 20 mM HEPES, pH7.5, 10 mM MgCl2, 150 mM NaCl, 1 mM EGTA (ethylene glycol tetraacetic acid), 1 mM DTT (Dithiothreitol), 10 μM GDP, 0.1% fatty acid free BSA, and 10 μg/ml Saponin to 0.4 nM. 40 μl of the [35S] GTP solution was added to the compound plate with a final concentration of 0.2 nM. The reaction was kept at room temperature for 45 min. At the end of incubation, all the mixtures in the compound plate were transferred to Millipore 384-well FB filter plates via the VELOCITY11 ® Vprep liquid handler. The filter plate was washed with water 4 times by using the manifold Embla plate washer and dried at 60° C. for 45 min. MicroScint 20 scintillation fluid (30 μl) was added to each well for counting on the Packard TOPCOUNT®. EC50 is defined as the agonist concentration that corresponds to 50% of the Ymax (maximal response) obtained for each individual compound tested.
A smaller value for GTPγS S1P1 EC50 value indicated greater activity for the compound in the GTPγS S1P1 binding assay. Thus the compounds of the present invention may be used in treating, preventing, or curing various S1P1 receptor-related conditions. The compounds have potential use in treating, preventing, or curing autoimmune and inflammatory diseases such as multiple sclerosis, rheumatoid arthritis, inflammatory bowel disease, lupus, psoriasis, or minimizing or reducing rejection of transplanted organs.
(In general: GTPγS is a poorly hydrolysed GTP analogue; its binding reports G protein activation.)

A further series deals with S1P3 (Homo sapiens (Human), UniProt Q99500). Nature of the series: Receptor [35S] GTPγS Binding Assay, S1P3. The class given is biochemical. Conditions: membranes from EDG3-Gal5-bla HEK293T cells. Here is the method:
as §1, §2

Series [3] has as its target T1, S1P1. Nature of the series: S1P1 Binding Assay (33P-S1P ligand competition, CHO membranes). Conditions: membranes from CHO cells expressing human S1P1. As to the method: Membranes were prepared from CHO cells expressing human S1P1. Cells pellets (1×10^9 cells/pellet) were suspended in buffer containing 20 mM HEPES (4-(2-hydroxyethyl)-1-piperazineethanesulfonic acid), pH 7.5, 50 mM NaCl, 2 mM EDTA (ethylenediamine tetraacetic acid) and Protease Inhibitor cocktail (Roche), and disrupted on ice using the Polytron homogenizer. The homogenate was centrifuged at 20,000 rpm (48,000 g) and the supernatant was discarded. The membrane pellets were resuspended in buffer containing 50 mM HEPES, pH 7.5, 100 mM NaCl, 1 mM MgCl2, 2 mM EDTA and stored in aliquots at −80° C. after protein concentration determination.
Membranes (2 μg/well) and 0.03 nM final concentration of ^33P-S1P ligand (1 mCi/ml, Perkin Elmer or American Radiolabeled Chemicals) diluted in assay buffer (50 mM HEPES, pH7.4, 5 mM MgCl2, 1 mM CaCl2), 0.5% fatty acid free BSA (bovine serum albumin), 1 mM NaF) were added to the compound plates (384 Falcon v-bottom plate (0.5 μl/well in a 11 point, 3-fold dilution). Binding was performed for 45 minutes at room temperature, terminated by collecting the membranes onto 384-well Millipore FB filter plates, and radioactivity was measured by TOPCOUNT®. The competition data of the test compounds over a range of concentrations was plotted as percentage inhibition of radioligand specific binding. The IC50 is defined as the concentration of competing ligand needed to reduce specific binding by 50%.

This is an account of results in US11059784B2, “Oxime ether compounds” (BRISTOL-MYERS SQUIBB COMPANY, priority 2017, dated 2021).

A word on the EC50: it is the concentration needed to bring the measured effect to its halfway point. High values mean weaker potency, low ones greater potency. By IC50 is commonly meant the point on the concentration scale where inhibition reaches its midpoint.

T1 sequence (P21453 whole entry): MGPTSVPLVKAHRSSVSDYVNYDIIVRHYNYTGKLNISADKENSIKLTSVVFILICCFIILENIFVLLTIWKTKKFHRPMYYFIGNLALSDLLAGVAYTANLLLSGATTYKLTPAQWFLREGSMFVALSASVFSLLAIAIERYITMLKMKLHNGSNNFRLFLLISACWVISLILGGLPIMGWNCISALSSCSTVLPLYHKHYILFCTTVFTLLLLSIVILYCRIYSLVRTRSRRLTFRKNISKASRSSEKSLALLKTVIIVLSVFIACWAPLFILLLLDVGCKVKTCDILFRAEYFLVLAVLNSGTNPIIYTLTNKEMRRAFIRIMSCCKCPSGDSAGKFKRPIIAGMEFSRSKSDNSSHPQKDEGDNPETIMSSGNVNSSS
Sequence of S1P3 (Q99500 whole entry): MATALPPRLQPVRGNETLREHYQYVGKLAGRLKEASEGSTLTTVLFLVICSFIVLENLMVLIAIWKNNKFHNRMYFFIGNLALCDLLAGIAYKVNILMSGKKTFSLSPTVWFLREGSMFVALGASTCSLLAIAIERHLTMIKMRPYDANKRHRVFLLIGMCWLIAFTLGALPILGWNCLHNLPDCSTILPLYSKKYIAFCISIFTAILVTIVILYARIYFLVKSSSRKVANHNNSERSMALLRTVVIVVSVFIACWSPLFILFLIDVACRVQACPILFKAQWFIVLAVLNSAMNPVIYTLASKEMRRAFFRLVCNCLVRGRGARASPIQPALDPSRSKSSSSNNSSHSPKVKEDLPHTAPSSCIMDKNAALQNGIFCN

Consider `CC(=NOCCc1ccccc1)c1ccc(C2CCC(N)(CO)C2)cc1.Cl` (stereo not drawn) [Example 3, 1-(4-(3-amino-3-(hydroxymethyl)cyclopentyl)phenyl)ethanone O-phenethyl Oxime], for which the “Relative BAL protein vs. control” value turned out to be 0.8 in series [1] (0.3 mg/kg oral), 0.8 in series [1] (1 mg/kg oral), 1.2 in series [1] (10 mg/kg oral) and 1.3 in series [1] (30 mg/kg oral). Further, the “Percent reduction vs. vehicle control” value with blood lymphocytes (0.3 mg/kg) was determined as 29%; with blood lymphocytes (1 mg/kg) it was 62%; with blood lymphocytes (10 mg/kg), 85%; in the series on blood lymphocytes (30 mg/kg), 85%. In the series on blood lymphocytes (10 mg/kg and 30 mg/kg), the “level of lymphocyte reduction (in words)” value is “maximal level of lymphocyte reduction comparable to the reduction shown by FTY”.

Consider `C/C(=N\OCCCc1ccccc1)c1ccc([C@@H]2CC[C@](N)(COP(=O)(O)O)C2)cc1` [Example 41, ((1R,3R)-1-amino-3-(4-((E)-1-((3-phenylpropoxy)imino)ethyl)phenyl)cyclopentyl) methyl dihydrogen phosphate], for which the concentration for a half-maximal effect (EC50) at S1P1 [2] worked out at 25.3 nM; at S1P3, 773 nM. Further, the half-maximal inhibitory concentration (IC50) on S1P1 [3] was 20 nM.

For the compound `CC(=NOCC1CCCCC1)c1ccc([C@@H]2CC[C@](N)(COP(=O)(O)O)C2)cc1` [Example 44], the 50% effective concentration (EC50) at S1P1 [2] was 20.3 nM; at S1P3, above 60000 nM. The compound further yielded an IC50 at S1P1 [3] of 15.1 nM.

For `CC(=NOCc1ccc(C(F)(F)F)cc1)c1ccc([C@@H]2CC[C@](N)(COP(=O)(O)O)C2)cc1` [Example 45, ((1R,3R)-1-amino-3-(4-(1-(((4-(trifluoromethyl)benzyl)oxy)imino)ethyl)phenyl)cyclopentyl)methyl dihydrogen phosphate], the concentration for a half-maximal effect (EC50) was 5.6 nM on S1P1 [2] and above 60000 nM on S1P3. Further, the concentration for half-maximal inhibition (IC50) at S1P1 [3] was 2.7 nM.

For `CC(=NOCCOc1ccccc1)c1ccc([C@@H]2CC[C@](N)(COP(=O)(O)O)C2)cc1` [Example 46, ((1R,3R)-1-amino-3-(4-(1-((2-phenoxyethoxy)imino)ethyl)phenyl)cyclopentyl) methyl dihydrogen phosphate], the EC50 on S1P1 [2] is 11.2 nM; on S1P3, above 60000 nM. Further, the IC50 on S1P1 [3] turned out to be 5.2 nM.

Consider `COc1cccc(CO/N=C(\C)c2ccc([C@@H]3CC[C@](N)(COP(=O)(O)O)C3)cc2)c1` [Example 50, ((1R,3R)-1-amino-3-(4-((E)-1-(((3-methoxybenzyl)oxy)imino)ethyl)phenyl)cyclopentyl) methyl dihydrogen phosphate], for which the results for the EC50 at S1P1 [2] and on S1P3 were 630 nM and above 60000 nM, respectively. This compound had a concentration for half-maximal inhibition (IC50) on S1P1 [3] of 563 nM.

On to `CC(=NOCCCc1ccccc1)c1ccc([C@H]2CC[C@](N)(COP(=O)(O)O)C2)cc1` [Example 52], for which the EC50 is 1.1 nM at S1P1 [2] and above 30000 nM on S1P3. Besides, the half-inhibitory concentration (IC50) on S1P1 [3] turned out to be 31.9 nM.

Take `C/C(=N\OCCCc1ccccc1)c1ccc(C(=O)N2CCC(N)(COP(=O)(O)O)CC2)cc1` [Example 57, (4-amino-1-(4-(1-((3-phenylpropoxy)imino)ethyl)benzoyl)piperidin-4-yl)methyl dihydrogen phosphate]: the EC50 is 324 nM on S1P1 [2] and above 60000 nM on S1P3. Besides, the IC50 at S1P1 [3] came out at 1870 nM.

With `C/C(=N\OCc1ccc(C2CCCCC2)c(C(F)(F)F)c1)c1ccc(C(=O)N2CCC(N)(COP(=O)(O)O)CC2)cc1` [Example 58, (E)-(4-amino-1-(4-(1-(((4-cyclohexyl-3-(trifluoromethyl)benzyl)oxy)imino)ethyl)benzoyl)piperidin-4-yl)methyl dihydrogen phosphate], the 50% effective concentration (EC50) is 60.8 nM on S1P1 [2] and above 3120 nM at S1P3. Further, the IC50 on S1P1 [3] was 10.7 nM.

Regarding `NC1(COP(=O)(O)O)CCN(C(=O)c2ccc(/C(=N/OCCCc3ccccc3)C(F)(F)F)cc2)C1` (stereo not drawn) [Example 65, (Z)-(3-amino-1-(4-(2,2,2-trifluoro-1-((3-phenylpropoxy)imino)ethyl)benzoyl)pyrrolidin-3-yl)methyl dihydrogen phosphate], the EC50 on S1P1 [2] was 626 nM; at S1P3, above 6250 nM. At S1P1 [3], this compound returned an IC50 of 1990 nM.

As to `C/C(=N\OCc1ccc(C2CCCCC2)c(C(F)(F)F)c1)c1ccc(S(=O)(=O)N2CCC(N)(COP(=O)(O)O)CC2)cc1` [Example 70, (E)-(4-amino-1-((4-(1-(((4-cyclohexyl-3-(trifluoromethyl)benzyl)oxy)imino)ethyl)phenyl)sulfonyl)piperidin-4-yl) methyl dihydrogen phosphate], the results for the EC50 at S1P1 [2] and at S1P3 were 406 nM and above 18000 nM, respectively. Moreover, the IC50 at S1P1 [3] stood at 918 nM.

Turning to `C/C(=N\OCCCc1ccccc1)c1ccc(S(=O)(=O)N2CCC(N)(COP(=O)(O)O)CC2)cc1` [Example 71, (E)-(4-amino-1-((4-(1-((3-phenylpropoxy)imino)ethyl)phenyl)sulfonyl)piperidin-4-yl)methyl dihydrogen phosphate], the values for the EC50 on S1P1 [2] and at S1P3 were 242 nM and above 18000 nM, respectively. At S1P1 [3], this compound registered an IC50 of 219 nM.

As to `C/C(=N\OCCc1ccccc1)c1ccc([C@@H]2CC[C@](N)(COP(=O)(O)O)C2)cc1` [Example 72, ((1R,3R)-1-amino-3-(4-((E)-1-(phenethoxyimino)ethyl)phenyl)cyclopentyl)methyl dihydrogen phosphate], the EC50 is 91.5 nM on S1P1 [2] and above 30000 nM on S1P3. For the same compound, on S1P1 [3], the half-inhibitory concentration (IC50) amounted to 61.6 nM.
